From patent US8697865B2, “Cyclic amide derivative, and its production and use” (Takeda Pharmaceutical Company Limited, priority 2004, dated 2014)
Structures can show the parent of a compound that is named as a salt.

Legend:
human FXa = human FXa (Homo sapiens, UniProt P00742); assay: Inhibitory action of human activated blood coagulation factor X (FXa); type: biochemical; details: chromogenic substrate S-2765, 37° C., absorbance at 405 nm, read-out: IC50 (concentration inhibiting FXa activity by 50%)
Chain of human FXa (P00742 235-488 limits assumed): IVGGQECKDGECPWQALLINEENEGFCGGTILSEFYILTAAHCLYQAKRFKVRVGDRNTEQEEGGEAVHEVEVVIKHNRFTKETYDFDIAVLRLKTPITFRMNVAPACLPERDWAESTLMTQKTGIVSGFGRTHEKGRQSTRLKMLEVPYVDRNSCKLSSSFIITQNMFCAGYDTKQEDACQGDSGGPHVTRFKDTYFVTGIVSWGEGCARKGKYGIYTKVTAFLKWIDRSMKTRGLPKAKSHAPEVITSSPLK
Chain of human FXa (P00742 41-179 partner limits assumed): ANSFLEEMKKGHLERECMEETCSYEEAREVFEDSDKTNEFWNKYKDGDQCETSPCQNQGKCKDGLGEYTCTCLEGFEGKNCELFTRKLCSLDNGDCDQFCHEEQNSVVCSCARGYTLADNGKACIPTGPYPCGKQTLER

| IC50 (human FXa) | melting point | Structure (SMILES) |
| --- | --- | --- |
| 4.8 nM |  | N=C1CCCCN1C1CCN(C(=O)[C@H](O)CS(=O)(=O)c2ccc3cc(Cl)ccc3c2)CC1 [Example 43, (2S)-3-[(6-Chloronaphthalen-2-yl)sulfonyl]-1-(2-imino-1,4′-bipiperidin-1′-yl)-1-oxopropan-2-ol trifluoroacetate] |
| 9.9 nM |  | O=C(CCS(=O)(=O)c1ccc2cc(Cl)ccc2c1)N1CCN(N2CCCNC2=O)CC1 [Example 33, 1-(1-{3-[(6-Chloronaphthalen-2-yl)sulfonyl]propanoyl}piperazin-4-yl)tetrahydropyrimidin-2(1H)-one] |
| 6.6 nM | 198 °C | O=C([C@H](O)CS(=O)(=O)c1ccc2cc(Cl)ccc2c1)N1CCN(N2CCCCC2=O)CC1 [Example 8, 1-(4-{(2S)-3-[(6-Chloronaphthalen-2-yl)sulfonyl]-2-hydroxypropanoyl}piperazin-1-yl)piperidin-2-one] |
| 4.2 nM |  | O=C([C@H](O)CS(=O)(=O)c1ccc2cc(Cl)ccc2c1)N1CCN(N2CCCNC2=O)CC1 [Example 25, 1-(4-{(2S)-3-[(6-Chloronaphthalen-2-yl)sulfonyl]-2-hydroxypropanoyl}piperazin-1-yl)tetrahydropyrimidin-2(1H)-one] |
